# Assay results published in paper PMC6435784, “Gut Microbiota-Based Pharmacokinetics and the Antidepressant Mechanism of Paeoniflorin” (Frontiers in Pharmacology, 2019).
# Read-outs that look alike come from different tables or passages of the source.
# Key:
# [1] = Metabolism of paeoniflorin in the homogenate of the liver tissue in vitro; format: in vitro ADME, rat; conditions: 100 μg/mL paeoniflorin, 37°C, 1 h, compared with intestinal bacteria incubation system, ***P < 0.001
# Procedure: Fresh rat liver tissue was cut into small pieces, 0.05 M Tris-HC1 buffer (1:2, pH 7.4) was added. The mixture was homogenized in a mixer and paeoniflorin was added to the liver homogenate at a final concentration of 100 μg/mL. Then, the mixture was incubated at 37°C for 1 h. The above reactions were terminated by the addition of 0.4 mL acetonitrile (1:2). Proteins were precipitated by centrifugation at 10,625 g for 5 min, and 10 μL supernatant was injected into the UPLC system for quantification.
# [2] = test system: rat intestinal microbial culture; test: Metabolism of paeoniflorin by intestinal bacteria in vitro; format: in vitro ADME; conditions: 24-h incubation
# Procedure: The colon contents of six rats were pooled, and 5 g of the sample was transferred to a ziplock bag and then mixed thoroughly with anaerobic medium (100 mL). After mixing completely, the cultures were stored at 37°C and preincubated for 1 h. Then, 10 μL of paeoniflorin (100 mg/mL) was added to fresh rat intestinal microbial culture (990 μL) under anaerobic conditions of N2, with a final concentration of 1 mg/mL of paeoniflorin in the culture system ([Hattori et al., 1988]). The inactivated bacteria solution was used as a negative control. Cultures were incubated at 37°C for 0, 2, 6, 12, and 24 h, respectively. After terminated the reaction with 3 volumes of acetonitrile, samples were vortexed for 30 s and then centrifuged at 16,162 g for 5 min. A total of 100 μL of the supernatant were transferred to a centrifuge tube, centrifuged at 16,162 g for 5 min and filtered through a 0.45 μm microporous membrane. Finally, 5 μL of the filtrate solution was collected for analysis.
# [3] = Excretion of paeoniflorin in rats (urine, feces, bile); format: in vivo, rat; conditions: normal rats, paeoniflorin 20 mg/kg, excreted form = labelled substance, n = 6
# [4] = Metabolism of paeoniflorin in liver microsome in vitro; format: in vitro ADME; conditions: 5 μM paeoniflorin, 1 mg/mL protein, NADPH, 37°C, incubation 2 h
# Procedure: Samples were incubated at 37°C in a shaker. The incubation mixtures were 0.2 mL of the final volume and the protein concentration was 1 mg/mL. […] The reaction was initiated by the addition of NADPH after a 3 min preincubation at 37°C. The above reactions were terminated by the addition of 0.4 mL acetonitrile (1:2). Proteins were precipitated by centrifugation at 10,625 g for 5 min, and 10 μL supernatant was injected into the UPLC system for quantification.
# gut microbiota = test: Analysis of microbial diversity by 16S rRNA gene sequencing; format: in vivo, rat; conditions: depression model rats, oral 20 mg/kg, 2 weeks of treatment
# Procedure: Rat feces of the chronic unpredictable depression model group were collected after 2 weeks of treatment. Three groups, including the normal control group, the model control group, the paeoniflorin treatment group (oral, 20 mg/kg) were selected. Barcoded pyro sequencing analysis was performed on the V3 and V4 regions by 16S rRNA gene sequencing.
# [5] = Pharmacokinetics of paeoniflorin in normal SD rats (plasma, LC-MS/MS); format: in vivo, rat; conditions: for MRT last: read-out: MRT (0-t); for MRT inf: read-out: MRT (0-∞); for half-life: read-out: t1/2z (converted)
# Procedure: Chromatography separation was performed using an XSS T3 column (3.5 μm, 2.1 mm × 100 mm, Waters, Milford, MA, United States) with the column temperature maintained at 40°C at a flow rate of 0.4 mL/min. […] The gradient was as follows: 25% eluent B for 2 min; 25–85% B from 2 to 4 min; 85–25% B from 4 to 5 min and held at 25% from 5 to 7 min. The autosampler temperature was set to 4°C. Mass spectrometry was carried out using multiple reaction monitoring mode (MRM). […] The nebulizing gas flow rate was 2.8 L/min, the drying gas flow rate was 10 L/min, and the heating gas flow rate was 10 L/min. […] Plasma samples were immediately stored at 4°C until analysis. The method validation assays were carried out in terms of specificity, linearity, sensitivity, accuracy, precisions, recovery, matrix effect and stability. […] Statistical analyses were conducted using two-way ANOVA and Student’s t-test with GraphPad Prism Version 5 (GraphPad Software, La Jolla, CA, United States). The data are expressed as the means ± standard deviation. […] DAS 3.0 was used to calculate the plasma pharmacokinetic parameters.
# [6] = Excretion of paeoniflorin in rats (urine, feces, bile); format: in vivo, rat; conditions: for Excretion rate of paeoniflorin (%), Urine (%), cumulative / Excretion rate of paeoniflorin (%), Feces (%), cumulative: total excretion, oral 20 mg/kg
# Procedure: Then, urine samples and feces samples were collected at 0, 6, 12, 24, 48, 72, and 96 h.
# [7] = Brain distribution of paeoniflorin and benzoic acid in rats; format: in vivo, rat; conditions: at 2 h after oral administration of paeoniflorin 20 mg/kg
# [8] = SD, rat, plasma, intravenous 2 mg/kg, normal rats, n = 5
# [9] = SD, rat, plasma, normal rats, oral 20 mg/kg, n = 6
# [10] = SD, rat, normal rats, oral paeoniflorin 20 mg/kg, plasma analyte = labelled substance, n = 6
# [11] = normal rats, oral 20 mg/kg, n = 6
# [12] = normal rats, oral paeoniflorin 20 mg/kg, plasma analyte = labelled substance, n = 6
# [13] = normal rats, oral paeoniflorin 20 mg/kg, excreted form = labelled substance, n = 6
smiles,measurement,setting,value
C[C@@]12C[C@@]3(O)O[C@@H](O1)[C@]1(COC(=O)c4ccccc4)[C@H]3C[C@@]12O[C@@H]1O[C@H](CO)[C@@H](O)[C@H](O)[C@H]1O [Paeoniflorin],production of benzoic acid in liver tissue homogenate,[1],significantly lower than that in the intestinal bacteria incubation system
same,transformation of paeoniflorin in intestinal bacteria,"[2]; 37°C, anaerobic, 1 mg/mL paeoniflorin, normal gut bacteria",completely transformed
same,metabolism of paeoniflorin in inactivated gut bacteria (control group),[2]; inactivated bacteria solution,not metabolized
same,cumulative excretion rate in bile for 60 h,[3],0.02%
same,benzoic acid production in the liver microsome system,[4],no benzoic acid produced
same,"abundance of Facklamia, Jeotgalicoccus, Ruminiclostridium_5 and Eubacterium_coprostanoligenes_group in feces",gut microbiota,decreased
same,"abundance of Lactobacillus, Lachnospira, Eubacterium_ruminantium_group and Roseburia in feces",gut microbiota,increased
same,AUC(0-t),"[5]; SD, rat, plasma, iv, 2 mg/kg, intravenous 2 mg/kg, normal rats, n = 5, read-out: AUC (0-t)",1.06 ± 0.326 µg·h/mL
same,bioavailability,"[5]; SD, rat, plasma, oral, rats, oral 20 mg/kg vs intravenous 2 mg/kg, F = AUCT·Div/AUCiv·DT × 100%, read-out: absolute (oral) bioavailability",2.32%
same,AUC(0-t),"[5]; SD, rat, plasma, po, 20 mg/kg, normal rats, oral paeoniflorin 20 mg/kg, plasma analyte = labelled substance, Figures 2C, 3B, 3C, read-out: AUC(0-t) (unit inferred)",0.245 µg·h/mL
same,Cmax,"[5]; SD, rat, plasma, po, 20 mg/kg, normal rats, oral paeoniflorin 20 mg/kg, plasma analyte = labelled substance, Figures 2C, 3B, 3C, read-out: Cmax (unit inferred)",0.119 µg/mL
same,AUC(0-t),"[5]; SD, rat, plasma, po, 20 mg/kg, normal rats, oral paeoniflorin 20 mg/kg, plasma analyte = labelled substance, n = 6, read-out: AUC (0-t)",0.245 ± 0.0728 µg·h/mL
same,Cmax,"[5]; SD, rat, plasma, po, 20 mg/kg, normal rats, oral paeoniflorin 20 mg/kg, plasma analyte = labelled substance, n = 6, read-out: Cmax",0.119 ± 0.0543 µg/mL
same,AUC(0-inf),[5]; [8],1.07 ± 0.325 µg·h/mL
same,clearance,"[5]; SD, rat, plasma, intravenous 2 mg/kg, normal rats, n = 5, read-out: CLz (converted)",2 L/h/kg
same,MRT last,[5]; [8],0.903 ± 0.122 h
same,MRT inf,[5]; [8],0.981 ± 0.07 h
same,Vd,"[5]; SD, rat, plasma, intravenous 2 mg/kg, normal rats, n = 5, read-out: Vz",6.09 ± 3.11 L/kg
same,half-life,[5]; [8],2.06 ± 0.771 h
same,MRT last,[5]; [9],2 ± 0.353 h
same,MRT inf,[5]; [9],2.04 ± 0.368 h
same,AUC(0-inf),[5]; [10],0.246 ± 0.0728 µg·h/mL
same,Tmax,[5]; [10],0.458 ± 0.195 h
same,half-life,[5]; [10],1.3 ± 0.474 h
same,CLz,[5]; [11],88.379 ± 29.015 L/h/kg
same,Vz,[5]; [11],161.261 ± 82.928 L/kg
same,AUC(0-t),[5]; [12],0.24529 ± 0.072811 µg·h/mL
same,Cmax,[5]; [12],0.11936 ± 0.0543 µg/mL
same,absolute (oral) bioavailability,"[5]; rats, oral 20 mg/kg vs intravenous 2 mg/kg, F = AUCT·Div/AUCiv·DT × 100%",2.3%
same,96-h cumulative excretion in feces,[6]; [13],0.016%
same,96-h cumulative excretion in urine,[6]; [13],1.66%
same,"Excretion rate of paeoniflorin (%), Urine (%), cumulative",[6]; time row 0–6 h,0.6821 ± 0.3209%
same,"Excretion rate of paeoniflorin (%), Feces (%), cumulative",[6]; time row 6–12 h,0.0890 ± 0.0568%
same,"Excretion rate of paeoniflorin (%), Urine (%), cumulative",[6]; time row 6–12 h,1.2565 ± 0.9639%
same,"Excretion rate of paeoniflorin (%), Feces (%), cumulative",[6]; time row 12–24 h,0.1247 ± 0.0763%
same,"Excretion rate of paeoniflorin (%), Urine (%), cumulative",[6]; time row 12–24 h,11.4988 ± 6.4969%
same,"Excretion rate of paeoniflorin (%), Feces (%), cumulative",[6]; time row 24–48 h,0.1479 ± 0.0932%
same,"Excretion rate of paeoniflorin (%), Urine (%), cumulative",[6]; time row 24–48 h,28.6890 ± 13.81%
same,"Excretion rate of paeoniflorin (%), Feces (%), cumulative",[6]; time row 48–72 h,0.1630 ± 0.0948%
same,"Excretion rate of paeoniflorin (%), Urine (%), cumulative",[6]; time row 48–72 h,42.8196 ± 19.2297%
same,"Excretion rate of paeoniflorin (%), Feces (%), cumulative",[6]; time row 72–96 h,0.1805 ± 0.1055%
same,"Excretion rate of paeoniflorin (%), Urine (%), cumulative",[6]; time row 72–96 h,43.7953 ± 19.5441%
same,detection in SD rat brains,[7],not detected
